Measurements reported in patent US6534542B2, “(2-hydroxy)ethyl-thioureas useful as modulators of α2B adrenergic receptors” (Allergen Sales, Inc., priority 2001, dated 2003).

Target: T1, alpha2B receptor (Homo sapiens, UniProt P18089)
T1 construct: expressed in transfected cells; host or cells: NIH-3T3
T1 sequence (P18089 1-450): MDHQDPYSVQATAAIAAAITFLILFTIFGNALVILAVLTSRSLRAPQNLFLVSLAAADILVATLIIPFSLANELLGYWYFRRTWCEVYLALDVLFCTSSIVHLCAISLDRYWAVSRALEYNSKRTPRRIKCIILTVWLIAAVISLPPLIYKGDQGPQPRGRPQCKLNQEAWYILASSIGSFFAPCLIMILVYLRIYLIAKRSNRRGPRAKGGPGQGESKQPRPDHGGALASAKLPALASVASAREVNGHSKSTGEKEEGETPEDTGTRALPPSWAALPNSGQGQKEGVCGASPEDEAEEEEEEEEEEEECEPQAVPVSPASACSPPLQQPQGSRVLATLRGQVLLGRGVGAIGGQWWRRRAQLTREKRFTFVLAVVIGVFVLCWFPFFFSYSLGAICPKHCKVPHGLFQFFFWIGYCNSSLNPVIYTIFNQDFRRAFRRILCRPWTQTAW
Assay: Receptor Selection and Amplification Technology (RSAT) assay, alpha2B
Type: cell-based
Conditions: NIH-3T3 cells; for EC50: NA = not active at concentrations less than 10 micromolar, read-out: RSAT EC50 (nM) Alpha 2B; for fraction of activity of the standard (brimonidine) attained, Alpha 2B (number in parenthesis): ratio of maximal effect to that of standard full agonist brimonidine
Excerpt: The compounds of the invention are agonists of α2 adrenergic receptors, particularly they tend to be specific or selective agonists of α2B and/or to a lesser extent α2C adrenergic receptors, in preference over α2A adrenergic receptors. […] Al., 1995, Pharmacol. Toxicol. 76, pp. 308-311 (incorporated herein by reference) and is also described below. Another reference pertinent to this assay is Conklin et al. (1993) Nature 363:274-6, also incorporated herein by reference.
The RSAT assay measures a receptor-mediated loss of contact inhibition that results in selective proliferation of receptor-containing cells in a mixed population of confluent cells. The increase in cell number is assessed with an appropriate transfected marker gene such as β-galactosidase, the activity of which can be easily measured in a 96-well format. Receptors that activate the G protein, Gq, elicit this response. Alpha2 receptors, which normally couple to Gi, activate the RSAT response when coexpressed with a hybrid Gq protein that has a Gi receptor recognition domain, called Gq/i5^2.
NIH-3T3 cells are plated at a density of 2×10^6 cells in 15 cm dishes and maintained in Dulbecco's modified Eagle's medium supplemented with 10% calf serum. One day later, cells are cotransfected by calcium phosphate precipitation with mammalian expression plasmids encoding p-SV-β-galactosidase (5-10 μg), receptor (1-2 μg) and G protein (1-2 μg). 40 μg salmon sperm DNA may also be included in the transfection mixture. Fresh media is added on the following day and 1-2 days later, cells are harvested and frozen in 50 assay aliquots. Cells are thawed and 100 μl added to 100 μl aliquots of various concentrations of drugs in triplicate in 96-well dishes. Incubations continue 72-96 hr at 37°. After washing with phosphate-buffered saline, β-galactosidase enzyme activity is determined by adding 200 μl of the chromogenic substrate (consisting of 3.5 mM o-nitrophenyl-β-D-galactopyranoside and 0.5% nonidet P-40 in phosphate buffered saline), incubating overnight at 30 and measuring optical density at 420 nm. The absorbance is a measure of enzyme activity, which depends on cell number and reflects a receptor-mediated cell proliferation. The EC50 and maximal effect of each drug at each alpha2 receptor is determined. The efficacy or intrinsic activity is calculated as a ratio of the maximal effect of the drug to the maximal effect of a standard full agonist for each receptor subtype. Brimonidine, also called […], the chemical structure of which is shown below, is used as the standard agonist for the alpha2A, alpha2B and alpha2C receptors. [drawing 6]
The results of the RSAT assay with several exemplary compounds of the invention are disclosed in Table 3. […] NA stands for “not active” at concentrations less than 10 micromolar. As is known EC50 is the concentration at which half of a given compound's maximal activity is observed. It can be seen from the table that the compounds of the invention are specific or selective agonists of α2B and/or α2C adrenergic receptors, with no agonist like activity or only with insignificant agonist-like activity on α2A receptors.

SMILES | EC50 | fraction of activity of the standard (brimonidine) attained, Alpha 2B (number in parenthesis)
C[C@@H]1CCC[C@@H]1NC(=S)NCCO (relative stereo) [Compound 12, 1-(2-Hydroxy-ethyl)-3-(cis-2-methyl-cyclopentyl)-thiourea] | 1530 nM | (0.47)
C[C@H]1CCC[C@H](NC(=S)NCCO)C1 (relative stereo) [Compound 38, (trans)-1-(2-Hydroxy-ethyl)-3-(3-methyl-cyclohexyl)-thiourea] | 1150 nM | (0.4)
C[C@H]1CCC[C@H](NC(=S)NCCO)C1 (single isomer, unassigned) [Compound 39, (cis)-1-(2-Hydroxy-ethyl)-3-(3-methyl-cyclohexyl)-thiourea] | 80 nM | (0.65)
OCCNC(=S)NCC1CCCCC1 [Compound 1, 1-Cyclohexylmethyl-3-(2-hydroxy-ethyl)-thiourea] | 204 nM | (0.61)
CC(C)[C@@H]1CC[C@@H](C)C[C@H]1NC(=S)NCCO [Compound 2, 1-(2-Hydroxy-ethyl)-3-(1R,2S,5R-2-isopropyl-5-methyl-cyclohexyl)-thiourea] | 189 nM | (0.54)
OCCNC(=S)NCC1=CCCCC1 [Compound 3, 1-(Cyclohex-1-enylmethyl)-3-(2-hydroxy-ethyl)-thiourea] | 877 nM | (0.8)
OCCNC(=S)NCC1C=CCCC1 (stereo not drawn) [Compound 4, 1-(Cyclohex-2-enylmethyl)-3-(2-hydroxy-ethyl)-thiourea] | 66 nM | (0.63)
CCC[C@@H]1CCCC[C@H]1NC(=S)NCCO [Compound 5, 1-(2-Hydroxy-ethyl)-3-((1R,2R)-2-propyl-cyclohexyl)-thiourea] | 216 nM | (0.49)
OCCNC(=S)NC1CCCCC1 [Compound 6, 1-Cyclohexyl-3-(2-hydroxy-ethyl)-thiourea] | 311 nM | (0.28)
OCCNC(=S)N[C@H]1CC[C@H](O)CC1 [Compound 7, 1-(4-Hydroxy-cyclohexyl)-3-(2-hydroxy-ethyl)-thiourea] | > 2000 nM | (0.32)
OCCNC(=S)NCC1CCCC1 [Compound 9, 1-Cyclopentylmethyl-3-(2-hydroxy-ethyl)-thiourea] | 441 nM | (0.62)
OCCNC(=S)NCC1CCCCCC1 [Compound 10, 1-Cycloheptylmethyl-3-(2-hydroxy-ethyl)-thiourea] | 355 nM | (0.54)
CC1CC=CCC1CNC(=S)NCCO (stereo not drawn) [Compound 11, 1-(2-hydroxy-ethyl)-3-(6-methyl-cyclohex-3-enylmethyl)-thiourea] | 20 nM | (0.93)
CC1=CC(NC(=S)NCCO)CC1 (stereo not drawn) [Compound 13, 1-(2-Hydroxy-ethyl)-3-(3-methyl-cyclopent-2-enyl)-thiourea] | 111 nM | (0.66)
CC1=CC(NC(=S)NCCO)CCC1 (stereo not drawn) [Compound 16, 1-(2-Hydroxy-ethyl)-3-(3-methyl-cyclohex-2-enyl)-thiourea] | 58 nM | (0.54)
OCCNC(=S)NCC1=C(Cl)CCCC1 [Compound 17, 1-(2-chloro-cyclohex-1-enylmethyl)-3-(2-hydroxy-ethyl)thiourea] | 15 nM | (0.63)
OCCNC(=S)NCC1=C(Br)CCCC1 [Compound 18, 1-(2-Bromo-cyclohex-1-enylmethyl)-3-(2-hydroxy-ethyl)-thiourea] | 10 nM | (0.77)
CCC1=CC(CNC(=S)NCCO)CCC1 (stereo not drawn) [Compound 19, 1-(2-Hydroxy-ethyl)-3-(3-ethyl-cyclohex-2-enylmethyl)-thiourea] | 55 nM | (0.46)
CC1=CC(CNC(=S)NCCO)CCC1 (stereo not drawn) [Compound 20, 1-(2-Hydroxy-ethyl)-3-(3-methyl-cyclohex-2-enylmethyl)-thiourea] | 37 nM | (0.78)
CC1=CCCCC1CNC(=S)NCCO (stereo not drawn) [Compound 21, 1-(2-Hydroxy-ethyl)-3-(2-methyl-cyclohex-2-enylmethyl)-thiourea] | 72 nM | (0.87)
CCC1=CCCCC1CNC(=S)NCCO (stereo not drawn) [Compound 22, 1-(2-Hydroxy-ethyl)-3-(2-ethyl-cyclohex-2-enylmethyl)-thiourea] | 126 nM | (0.73)
CC1=C(CNC(=S)NCCO)CCCC1 [Compound 23, 1-(2-Hydroxy-ethyl)-3-(2-methyl-cyclohex-1-enylmethyl)-thiourea] | 125 nM | (0.68)
CCC1=C(CNC(=S)NCCO)CCCC1 [Compound 24, 1-(2-Hydroxy-ethyl)-3-(2-ethyl-cyclohex-1-enylmethyl)-thiourea] | 772 nM | (0.71)
CCCCC1=CCCC1CNC(=S)NCCO (stereo not drawn) [Compound 26, 1-(2-Butyl-cyclopent-2-enylmethyl)-3-(2-hydroxy-ethyl)-thiourea] | 816 nM | (0.48)
CC1C=C(CNC(=S)NCCO)CC1 (stereo not drawn) [Compound 28, 1-(2-Hydroxy-ethyl)-3-(3-methyl-cyclopent-1-enylmethyl)-thiourea] | 544 nM | (0.52)
OCCNC(=S)NC1CCCC=C1Br (stereo not drawn) [Compound 29, 1-(2-Bromo-cyclohex-2-enyl)-3-(2-Hydroxy-ethyl)-thiourea] | 90 nM | (0.84)
CCCC1=CCCCC1NC(=S)NCCO (stereo not drawn) [Compound 30, 1-(2-Hydroxy-ethyl)-3-(2-propyl-cyclohex-2-enyl)-thiourea] | 78 nM | (0.71)
CCC1=CC(NC(=S)NCCO)CCC1 (stereo not drawn) [Compound 32, 1-(2-Hydroxy-ethyl)-3-(3-ethyl-cyclohex-2-enyl)-thiourea] | 96 nM | (0.37)
CC[C@H]1CC[C@H](NC(=S)NCCO)CC1 [Compound 36, (trans)-1-(2-Hydroxy-ethyl)-3-(4-ethyl-cyclohexyl)-thiourea] | 97 nM | (0.53)
CC1CCCCC1NC(=S)NCCO (stereo not drawn) [Compound 41, 1-(2-Methyl-cyclohexyl)-3-(2-hydroxy-ethyl)-thiourea] | 27 nM | (0.78)
